Measured values reported in US20230416329A1, “A PEPTIDE WITH DISULFIDE BONDS AND INHIBITORY ACTIVITY AGAINST SERINE PROTEASES, DERIVED HYBRID PEPTIDES THEREOF, AND USES THEREOF” (INSTITUTE OF MATERIA MEDICA , CHINESE ACADEMY OF MEDICAL …, priority 2020, published 2023).
Bridge positions count the residues as written; N and C are the ends. Square brackets hold non-standard residues; d marks the D form. Peptide text beside a SMILES is read from it. Abu = CC[C@H](N)C(=O)O

Legend:
[1] = target: chymotrypsin (Bos taurus, UniProt P00766); assay: in vitro; conditions: isolated enzyme chymotrypsin, pH 7.8, Remaining peak area (%)/chymotrypsin
Description: FIG. 18. […] At different time point, 25 μL aliquots was taken out, and 10% (v/v) TFA was added to terminate the reaction.
(§1) Mix by centrifugation at 8000 rpm for 30 seconds.
Arrange a certain volume of 0.05 μg/μL chymotrypsin solution in another sterile EP. Incubate the EP tubes containing peptides and enzymes at 37° C. for 5 min, and add 3 μL of […] solution to each EP tube containing peptides and mix well. Start timing and extract 25 μL of reaction solution at 1.5, 3.0, 4.5, 6.0 and 9.0 min later, respectively. Add 3.75 μL of 10% TFA to terminate the reaction and mix well by centrifugation at 8000 rpm for 30 seconds.
Arrange a certain volume of 0.05 μg/μL chymotrypsin solution in another sterile EP. Incubate the EP tubes containing peptides and enzymes at 37° C. for 5 min, and then add 4.5 μL of chymotrypsin solution to each EP tube containing peptides and mix well. Start timing and extract 25 μL of reaction solution at 1.5, 3.0, 4.5, 6.0, 9.0, 15.0, 30.0, and 60.0 min later, respectively. Add 3.75 μL of 10% TFA to terminate the reaction and mix well by centrifugation at 8000 rpm for 30 seconds.
Referring to the experimental method in Example 5, in vitro stability of salmon Calcitonin analogs with oral administration activity to the enzymatic hydrolysis by trypsin, chymotrypsin and elastase were performed.
Referring to the experimental method in Example 5, in vitro stability of IL-17A inhibitory peptides towards the enzymatic hydrolysis by trypsin, chymotrypsin and elastase were performed.

[2] = target: DPP-IV (Homo sapiens, UniProt P27487); assay: Tolerance of GLP-1 and its analogues to DPP-IV (RP-HPLC remaining peak area); format: in vitro ADME; conditions: peptide 25 μM, DPP-IV 0.5 ng/μL, 37° C.; for Remaining peak area (%)/DPP-IV: 0.0 h; for remaining at 0.5 h, 25 μM / remaining at 2 h, 25 μM / remaining at 4 h, 25 μM / remaining at 8 h, 25 μM / remaining at 12 h, 25 μM: isolated DPP-IV enzyme in buffer, pH 8
DPP-IV, sequence (P27487 whole entry, species assumed): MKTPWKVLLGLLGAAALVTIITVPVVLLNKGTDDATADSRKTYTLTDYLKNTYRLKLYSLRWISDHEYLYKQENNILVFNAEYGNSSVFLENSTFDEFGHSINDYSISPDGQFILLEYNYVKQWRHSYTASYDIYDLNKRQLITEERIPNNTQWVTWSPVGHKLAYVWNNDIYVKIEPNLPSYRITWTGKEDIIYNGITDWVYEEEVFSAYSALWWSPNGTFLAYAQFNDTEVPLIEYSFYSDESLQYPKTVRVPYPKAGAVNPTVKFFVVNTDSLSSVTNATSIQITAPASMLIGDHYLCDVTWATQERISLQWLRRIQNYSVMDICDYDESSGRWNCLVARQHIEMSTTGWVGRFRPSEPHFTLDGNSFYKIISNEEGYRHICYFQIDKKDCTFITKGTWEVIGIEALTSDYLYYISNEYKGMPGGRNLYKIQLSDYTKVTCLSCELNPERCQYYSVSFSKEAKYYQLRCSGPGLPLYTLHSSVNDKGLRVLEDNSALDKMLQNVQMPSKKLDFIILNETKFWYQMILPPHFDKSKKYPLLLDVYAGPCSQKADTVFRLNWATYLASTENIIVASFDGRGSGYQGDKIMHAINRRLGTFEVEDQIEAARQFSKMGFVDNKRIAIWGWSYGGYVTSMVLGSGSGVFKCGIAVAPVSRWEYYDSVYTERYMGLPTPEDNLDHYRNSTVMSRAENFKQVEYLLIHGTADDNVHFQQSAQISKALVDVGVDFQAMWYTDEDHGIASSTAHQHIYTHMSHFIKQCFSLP
Description: as §1
(2) Arrange a certain volume of 0.005 μg/μL DPP-IV solution in another sterile EP.

[3] = Stability of GLP-1 and its analogues in human serum; conditions: 25% (v/v) human serum; for Remaining peak area (%)/human serum: 0.0 h, peptide 0.03 mM, 37° C.; for remaining at 0.5 h, 0.03 mM / remaining at 2 h, 0.03 mM / remaining at 4 h, 0.03 mM / remaining at 8 h, 0.03 mM / remaining at 12 h, 0.03 mM: human, pH 7
[4] = target: porcine pancreatic elastase (Sus scrofa, UniProt P00772); assay: Elastase inhibitory activity of peptides (AAApNA hydrolysis; IC50, Ki, residual activity); format: biochemical; conditions: elastase 0.5 μM, AAApNA 1 mM
porcine pancreatic elastase, sequence (P00772 27-266): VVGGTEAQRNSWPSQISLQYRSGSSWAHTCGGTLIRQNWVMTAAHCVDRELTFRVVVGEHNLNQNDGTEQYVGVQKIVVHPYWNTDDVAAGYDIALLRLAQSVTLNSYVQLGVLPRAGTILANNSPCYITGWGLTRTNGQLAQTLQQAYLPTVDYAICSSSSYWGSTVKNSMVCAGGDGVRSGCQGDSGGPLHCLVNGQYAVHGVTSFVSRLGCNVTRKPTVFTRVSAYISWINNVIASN
Method in brief: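 Porcine pancreatic elastase, 0.5 μM final, was preincubated with peptide for 10 min at 37° C in 20 mM CaCl2, 50 mM Tris-HCl pH 8.0. AAApNA (1 mM final) was then added for 60 min and A405 read. Residual activity gave IC50, converted to Ki via IC50/(1+S/Km) using measured Km.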

Structure (SMILES) | remaining at 0.025 h, 60 μM [1] | remaining at 0.05 h, 60 μM [1] | remaining at 0.075 h, 60 μM [1] | remaining at 0.1 h, 60 μM [1] | remaining at 0.15 h, 60 μM [1] | remaining at 0.25 h, 60 μM [1] | remaining at 0.5 h, 60 μM [1] | remaining at 1 h, 60 μM [1] | Remaining peak area (%)/DPP-IV [2] | remaining at 0.5 h, 25 μM [2] | remaining at 2 h, 25 μM [2] | remaining at 4 h, 25 μM [2] | remaining at 8 h, 25 μM [2] | remaining at 12 h, 25 μM [2] | Remaining peak area (%)/human serum [3] | remaining at 0.5 h, 0.03 mM [3] | remaining at 2 h, 0.03 mM [3] | remaining at 4 h, 0.03 mM [3] | remaining at 8 h, 0.03 mM [3] | remaining at 12 h, 0.03 mM [3] | also measured
CC[C@H](C)[C@H](NC(=O)[C@H](Cc1ccccc1)NC(=O)[C@H](CCC(=O)O)NC(=O)[C@H](CCCCN)NC(=O)[C@H](C)NC(=O)[C@H](C)NC(=O)[C@H](CCC(N)=O)NC(=O)CNC(=O)[C@H](CCC(=O)O)NC(=O)[C@H](CC(C)C)NC(=O)[C@H](Cc1ccc(O)cc1)NC(=O)[C@H](CO)NC(=O)[C@H](CO)NC(=O)[C@@H](NC(=O)[C@H](CC(=O)O)NC(=O)[C@H](CO)NC(=O)[C@@H](NC(=O)[C@H](Cc1ccccc1)NC(=O)[C@@H](NC(=O)CNC(=O)[C@H](CCC(=O)O)NC(=O)[C@H](C)NC(=O)[C@H](Cc1c[nH]cn1)NC(=O)CNC(=O)CNC(=O)[C@@H](NC(=O)[C@@H]1CCCN1C(=O)[C@@H](NC(=O)CNC(=O)CNC(=O)[C@H](Cc1ccc(O)cc1)NC(=O)[C@@H]1CSSC[C@H](NC(=O)[C@@H](N)Cc2ccccc2)C(=O)N[C@@H]([C@@H](C)O)C(=O)N[C@@H](Cc2ccc(O)cc2)C(=O)N[C@@H](CO)C(=O)N[C@@H]([C@@H](C)CC)C(=O)N2CCC[C@H]2C(=O)N2CCC[C@H]2C(=O)N[C@@H](CCC(N)=O)C(=O)N1)[C@@H](C)CC)[C@@H](C)CC)[C@@H](C)O)[C@@H](C)O)C(C)C)C(=O)N[C@@H](C)C(=O)N[C@@H](Cc1c[nH]c2ccccc12)C(=O)N[C@@H](CC(C)C)C(=O)N[C@H](C(=O)N[C@@H](CCCCN)C(=O)NCC(=O)N[C@@H](CCCNC(=N)N)C(=O)NCC(=O)NCC(=O)N[C@@H](CCCCN)C(=O)O)C(C)C [CH10-D-GLP-1] | 59.7 ± 2.1% | 59.1 ± 4.5% | 54.5 ± 1.2% | 57.3 ± 1.5% | 56.3 ± 4.7% | 54 ± 4.7% | 57.4 ± 4% | 59.4 ± 2.1% | 100.0 ± 0.0% | 91.2 ± 3.2% | 94.1 ± 2.3% | 86.8 ± 0.8% | 84.1 ± 6.7% | 81.8 ± 0.6% | 100.0 ± 0.0% | 74.4 ± 5.5% | 54.8 ± 2.1% | 26.2 ± 2.9% | 7.3 ± 1% | 0.8% | –
CC[C@H](C)[C@H](NC(=O)[C@H](Cc1ccccc1)NC(=O)[C@H](CCC(=O)O)NC(=O)[C@H](CCCCN)NC(=O)[C@H](C)NC(=O)[C@H](C)NC(=O)[C@H](CCC(N)=O)NC(=O)CNC(=O)[C@H](CCC(=O)O)NC(=O)[C@H](CC(C)C)NC(=O)[C@H](Cc1ccc(O)cc1)NC(=O)[C@H](CO)NC(=O)[C@H](CO)NC(=O)[C@@H](NC(=O)[C@H](CC(=O)O)NC(=O)[C@H](CO)NC(=O)[C@@H](NC(=O)[C@H](Cc1ccccc1)NC(=O)[C@@H](NC(=O)CNC(=O)[C@H](CCC(=O)O)NC(=O)[C@H](C)NC(=O)[C@H](Cc1c[nH]cn1)NC(=O)CNC(=O)CNC(=O)[C@@H](NC(=O)[C@@H]1CCCN1C(=O)[C@@H](NC(=O)CNC(=O)CNC(=O)[C@H](Cc1ccc(O)cc1)NC(=O)[C@@H]1CSSC[C@H](NC(=O)[C@@H](N)CO)C(=O)N[C@@H]([C@@H](C)O)C(=O)N[C@@H](Cc2ccc(O)cc2)C(=O)N[C@@H](CO)C(=O)N[C@@H]([C@@H](C)CC)C(=O)N2CCC[C@H]2C(=O)N2CCC[C@H]2C(=O)N[C@@H](CCC(N)=O)C(=O)N1)[C@@H](C)CC)[C@@H](C)CC)[C@@H](C)O)[C@@H](C)O)C(C)C)C(=O)N[C@@H](C)C(=O)N[C@@H](Cc1c[nH]c2ccccc12)C(=O)N[C@@H](CC(C)C)C(=O)N[C@H](C(=O)N[C@@H](CCCCN)C(=O)NCC(=O)N[C@@H](CCCNC(=N)N)C(=O)NCC(=O)NCC(=O)N[C@@H](CCCCN)C(=O)O)C(C)C [CH4-D-GLP-1] | 84.9 ± 1.6% | 89.6 ± 4.2% | 83.6 ± 0.5% | 86.2 ± 0.7% | 81.1 ± 4.7% | 83.3 ± 1.4% | 84.5 ± 3.7% | 78.6 ± 2% | 100.0 ± 0.0% | 88.5 ± 0.7% | 90 ± 0.9% | 92.4 ± 0.5% | 85.1 ± 0.9% | 88.6 ± 3.7% | 100.0 ± 0.0% | 72.3 ± 0.5% | 34 ± 0.2% | 16.6 ± 0.8% | 4.4 ± 0.2% | 1.8 ± 0.1% | –
CC[C@H](C)[C@H](NC(=O)[C@H](Cc1ccccc1)NC(=O)[C@H](CCC(=O)O)NC(=O)[C@H](CCCCN)NC(=O)[C@H](C)NC(=O)[C@H](C)NC(=O)[C@H](CCC(N)=O)NC(=O)CNC(=O)[C@H](CCC(=O)O)NC(=O)[C@H](CC(C)C)NC(=O)[C@H](Cc1ccc(O)cc1)NC(=O)[C@H](CO)NC(=O)[C@H](CO)NC(=O)[C@@H](NC(=O)[C@H](CC(=O)O)NC(=O)[C@H](CO)NC(=O)[C@@H](NC(=O)[C@H](Cc1ccccc1)NC(=O)[C@@H](NC(=O)CNC(=O)[C@H](CCC(=O)O)NC(=O)[C@H](C)NC(=O)[C@H](Cc1c[nH]cn1)NC(=O)CNC(=O)CNC(=O)[C@@H](NC(=O)[C@@H]1CCCN1C(=O)[C@@H](NC(=O)CN)[C@@H](C)CC)[C@@H](C)CC)[C@@H](C)O)[C@@H](C)O)C(C)C)C(=O)N[C@@H](C)C(=O)N[C@@H](Cc1c[nH]c2ccccc12)C(=O)N[C@@H](CC(C)C)C(=O)N[C@H](C(=O)N[C@@H](CCCCN)C(=O)NCC(=O)N[C@@H](CCCNC(=N)N)C(=O)NCC(=O)NCC(=O)N[C@@H](CCCCN)C(=O)NCC(=O)N[C@@H](CO)C(=O)N[C@H]1CSSC[C@@H](C(=O)N[C@@H](Cc2ccc(O)cc2)C(=O)NCC(=O)O)NC(=O)[C@H](CCC(N)=O)NC(=O)[C@@H]2CCCN2C(=O)[C@@H]2CCCN2C(=O)[C@H]([C@@H](C)CC)NC(=O)[C@H](CO)NC(=O)[C@H](Cc2ccc(O)cc2)NC(=O)[C@H]([C@@H](C)O)NC1=O)C(C)C [D-GLP-1-CH4] | 80.9 ± 1.7% | 78 ± 2.9% | 83.2 ± 0.3% | 83.9 ± 3% | 82.4 ± 3.9% | 78.5 ± 2.1% | 81.3 ± 2.8% | 76.3 ± 2.7% | 100.0 ± 0.0% | 81.6 ± 1.9% | 76.4 ± 4.2% | 80.8 ± 1.4% | 75.1 ± 2.4% | 71 ± 3% | 100.0 ± 0.0% | 106 ± 15.8% | 97.6 ± 5.4% | 83 ± 3.1% | 64 ± 6.8% | 58.2 ± 10% | –
CC[C@@H]1NC(=O)[C@H]([C@@H](C)CC)NC(=O)CNC(=O)[C@@H](N)CSSC[C@@H](C(=O)N[C@@H](CCC(N)=O)C(=O)O)NC(=O)[C@H]([C@@H](C)CC)NC(=O)[C@@H]2CCCN2C(=O)[C@@H]2CCCN2C(=O)[C@H]([C@@H](C)CC)NC(=O)[C@H](CO)NC(=O)[C@H](C)NC(=O)[C@H]([C@@H](C)O)NC1=O [EC31] (H-CGI[Abu]TASIPPICQ-OH; disulfide 1-12) | – | – | – | – | – | – | – | – | – | – | – | – | – | – | – | – | – | – | – | – | IC50 [4]: > 50 µM
